From patent publication US8889668B2, “Oxadiazole diaryl compounds” (Merck Serono SA, priority 2007, dated 2014)
pEC50, pKi: −log10 of the molar value.

What was measured:
S1P1 [1] = target: T1, S1P1 (Homo sapiens (Human), UniProt P21453); experiment: 35S-GTPγS binding, membranes from CHO cells expressing S1P1; assay type: biochemical; settings: 60 min 30° C., read-out: S1P1 GTPgS EC50
S1P3 = S1P3 (Homo sapiens (Human), UniProt Q99500); experiment: 35S-GTPγS binding, membranes from CHO cells expressing S1P3; assay type: biochemical; settings: 60 min 30° C., read-out: S1P3 GTPgs EC50
Method: (§1) Receptor binding assay: Membranes were prepared from CHO cells expressing S1P1 or S1P3 for use in ligand and […] binding studies. Cells were suspended in 50 mM TRIS, pH 7.4, 2 mM EDTA, 250 mM Sucrose (buffer A) and 1× Complete protease inhibitor cocktail (Roche), and disrupted at 4° C. by nitrogen decompression using a cell disruption bomb (Parr Instrument). Following centrifugation at 1000 RPM for 10 min at 4° C., the supernatant was suspended in buffer A and centrifuged again at 19000 RPM for 60 min at 4° C. The pellet was then suspended in 10 mM HEPES, pH 7.4, 1 mM EDTA, 250 mM Sucrose (Buffer B), and 1× Complete EDTA-free protease inhibitor cocktail and homogenized using a potter. Membranes were flash frozen in liquid nitrogen and stored at −80° C. [33P]sphingosine 1-phosphate (3000 Ci/mmol; American Radiolabeled Chemicals, Inc.) was added to test compounds in DMSO. Membranes and WGA SPA beads (GE Healthcare) were added to give a final volume of 100 μl in 96-well plates with assay concentrations of 25 pM or 10 pM [33P]sphingosine 1-phosphate (respectively for S1P1 or S1P3), 50 mM HEPES, pH 7.5, 5 mM MgCl2, 100 mM NaCl, 0.4% fatty acid-free BSA, 1-5 μg/well of proteins and 100 μg/well of WGA SPA beads. Binding was performed for 60 min at room temperature on a shaker and bound radioactivity was measured on a PerkinElmer 1450 MicroBeta counter. Specific binding was calculated by subtracting remaining radioactivity in the presence of 1000-fold excess of unlabeled S1P. Binding data were analyzed using the GraphPad Prism program.
Measurements of ^35S-GTPγS Binding: Membranes (1 to 10 μg protein) prepared as described above, were incubated in 96-well Scintiplates (PerkinElmer) with test compounds diluted in DMSO, in 180 μl of 20 mM HEPES, pH 7.4, 10 mM MgCl2, 2 μg/well Saponin, 0.2% fatty acid free BSA (Assay buffer), 140 mM NaCl and 1.7 μM GDP. The assay was initiated with the addition of 20 μl of 1.5 nM [35S]-GTPγS (1100 Ci/mmol; GE Healthcare) in assay buffer. After 60 min incubation at 30° C. on a shaker, plates were centrifuged for 10 min at 2000 RPM. Supernatant was discarded and membrane bound radioactivity was measured on a PerkinElmer 1450 MicroBeta counter. Triplicate samples were averaged and expressed as % response relative to S1P activation in absence of compound (n=2).

S1P1 [2] = target: T1, S1P1; experiment: Receptor binding assay, [33P]sphingosine 1-phosphate, membranes from CHO cells expressing S1P1; settings: [33P]S1P 25 pM, SPA
Method: as §1

T1 sequence (P21453 whole entry, species assumed): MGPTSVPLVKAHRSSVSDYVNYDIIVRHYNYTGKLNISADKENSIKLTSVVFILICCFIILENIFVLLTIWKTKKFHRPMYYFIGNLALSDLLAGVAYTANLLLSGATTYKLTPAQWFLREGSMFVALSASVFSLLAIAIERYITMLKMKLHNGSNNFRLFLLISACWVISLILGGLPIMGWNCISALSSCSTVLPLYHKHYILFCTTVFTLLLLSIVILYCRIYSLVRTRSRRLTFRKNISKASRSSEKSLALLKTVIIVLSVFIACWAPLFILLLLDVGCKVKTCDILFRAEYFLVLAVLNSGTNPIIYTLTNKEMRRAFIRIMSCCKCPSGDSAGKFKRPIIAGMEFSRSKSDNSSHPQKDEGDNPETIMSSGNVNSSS
Sequence of S1P3 (Q99500 whole entry, species assumed): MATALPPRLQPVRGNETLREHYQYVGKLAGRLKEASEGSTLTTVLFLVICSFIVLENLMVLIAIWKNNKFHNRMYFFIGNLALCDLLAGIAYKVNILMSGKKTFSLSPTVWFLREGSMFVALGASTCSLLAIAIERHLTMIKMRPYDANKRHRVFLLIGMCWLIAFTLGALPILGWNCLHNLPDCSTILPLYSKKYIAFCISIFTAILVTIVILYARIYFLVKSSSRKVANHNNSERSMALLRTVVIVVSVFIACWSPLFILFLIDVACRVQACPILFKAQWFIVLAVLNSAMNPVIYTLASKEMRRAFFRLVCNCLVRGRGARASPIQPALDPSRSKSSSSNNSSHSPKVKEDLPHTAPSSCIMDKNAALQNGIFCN

SMILES	pEC50 (S1P1 [1])	pEC50 (S1P3)	pKi (S1P1 [2])
COc1cc(-c2nc(-c3ccccc3OC(F)(F)F)no2)ccc1-c1ccccc1C [Compound I53, 5-(2-methoxy-2′-methylbiphenyl-4-yl)-3-[2-(trifluoromethoxy)phenyl]-1,2,4-oxadiazole]	7.85	< 4.70	–
FC(F)(F)Oc1ccccc1-c1noc(-c2ccc(N3CCOCC3)c(C(F)(F)F)c2)n1 [Compound I19, 4-[4-{3-[2-(trifluoromethoxy)phenyl]-1,2,4-oxadiazol-5-yl}-2-(trifluoromethyl)phenyl]morpholine]	7.74	< 4.52	–
COc1ccccc1-c1noc(-c2ccc(N3CCCCC3C)c([N+](=O)[O-])c2)n1 (centres unmarked) [Compound I9, 1-{4-[3-(2-methoxyphenyl)-1,2,4-oxadiazol-5-yl]-2-nitrophenyl}-2-methylpiperidine]	8.15	5.27	–
CCOc1ccccc1-c1noc(-c2ccc(N3CCCCC3C)c([N+](=O)[O-])c2)n1 (centres unmarked) [Compound I10, 1-{4-[3-(2-ethoxyphenyl)-1,2,4-oxadiazol-5-yl]-2-nitrophenyl}-2-methylpiperidine]	7.62	< 4.52	–
Cc1cc(-c2nc(-c3ccccc3OC(F)(F)F)no2)ccc1-c1ccccc1C(F)(F)F [Compound I23, 5-[2-methyl-2′-(trifluoromethyl)biphenyl-4-yl]-3-[2-(trifluoromethoxy)phenyl]-1,2,4-oxadiazole]	8.00	< 4.52	7.80
CCOc1ccccc1-c1noc(-c2ccc(-c3ccccc3C)c(C)c2)n1 [Compound I22, 5-(2,2′-dimethylbiphenyl-4-yl)-3-(2-ethoxyphenyl)-1,2,4-oxadiazole]	7.29	< 4.52	–
COc1ccccc1-c1noc(-c2ccc(N3CCOCC3)c([N+](=O)[O-])c2)n1 [Compound I2, 4-{4-[3-(2-methoxyphenyl)-1,2,4-oxadiazol-5-yl]-2-nitrophenyl}morpholine]	7.29	< 4.52	7.74
COc1ccccc1-c1noc(-c2ccc(N3CCCCC3C)c(C(F)(F)F)c2)n1 (centres unmarked) [Compound I35, 1-[4-[3-(2-methoxyphenyl)-1,2,4-oxadiazol-5-yl]-2-(trifluoromethyl)phenyl]-2-methylpiperidine]	8.70	6.19	8.52
FC(F)(F)Oc1ccccc1-c1noc(-c2ccc(N3CCCCC3)cc2)n1 [Compound I3, 1-(4-{3-[2-(trifluoromethoxy)phenyl]-1,2,4-oxadiazol-5-yl}phenyl)piperidine]	5.75	–	6.19
COc1ccccc1-c1noc(-c2ccc(-c3ccccc3C)c([N+](=O)[O-])c2)n1 [Compound I26, 3-(2-methoxyphenyl)-5-(2′-methyl-2-nitrobiphenyl-4-yl)-1,2,4-oxadiazole]	8.05	5.30	8.70
COc1ccc(F)cc1-c1noc(-c2ccc(N3CCCCC3C)c(NS(C)(=O)=O)c2)n1 (centres unmarked) [Compound I72, N-[5-[3-(5-fluoro-2-methoxyphenyl)-1,2,4-oxadiazol-5-yl]-2-(2-methylpiperidin-1-yl)phenyl]methanesulfonamide]	8.10	< 4.70	7.34
COc1ccccc1-c1noc(-c2ccc(-c3cscc3C)c(OC)c2)n1 [Compound I48, 5-[3-methoxy-4-(4-methyl-3-thienyl)phenyl]-3-(2-methoxyphenyl)-1,2,4-oxadiazole]	8.30	5.66	8.40
Cc1ccccc1-c1ccc(-c2nc(-c3ccccc3OC(F)(F)F)no2)cc1[N+](=O)[O-] [Compound I36, 5-(2′-methyl-2-nitrobiphenyl-4-yl)-3-[2-(trifluoromethoxy)phenyl]-1,2,4-oxadiazole]	8.00	5.68	–
COc1ccccc1-c1noc(-c2ccc(N3CCOCC3)c(C(F)(F)F)c2)n1 [Compound I18, 4-[4-[3-(2-methoxyphenyl)-1,2,4-oxadiazol-5-yl]-2-(trifluoromethyl)phenyl]morpholine]	8.22	< 4.52	8.15
COc1ccc(F)cc1-c1noc(-c2ccc(-c3ccccc3C)c(CO)c2)n1 [Compound I77, {4-[3-(5-fluoro-2-methoxyphenyl)-1,2,4-oxadiazol-5-yl]-2′-methylbiphenyl-2-yl}methanol]	7.19	5.25	7.28
FC(F)(F)Oc1ccccc1-c1noc(-c2ccc(N3CCCCC3)c(C(F)(F)F)c2)n1 [Compound I61, 1-[4-{3-[2-(trifluoromethoxy)phenyl]-1,2,4-oxadiazol-5-yl}-2-(trifluoromethyl)phenyl]piperidine]	8.40	–	7.27
COc1cc(-c2nc(-c3ccccc3OC(F)(F)F)no2)ccc1-c1cscc1C [Compound I54, 5-[3-methoxy-4-(4-methyl-3-thienyl)phenyl]-3-[2-(trifluoromethoxy)phenyl]-1,2,4-oxadiazole]	7.89	< 4.52	–
Cc1cscc1-c1ccc(-c2nc(-c3ccccc3OC(F)(F)F)no2)cc1C(F)(F)F [Compound I70, 5-[4-(4-methyl-3-thienyl)-3-(trifluoromethyl)phenyl]-3-[2-(trifluoromethoxy)phenyl]-1,2,4-oxadiazole]	8.70	–	8.40
COc1ccc(F)cc1-c1noc(-c2cnc(N3CCCCC3C)c(C)c2)n1 (centres unmarked) [Compound I74, 5-[3-(5-fluoro-2-methoxyphenyl)-1,2,4-oxadiazol-5-yl]-3-methyl-2-(2-methylpiperidin-1-yl)pyridine]	8.30	–	8.22

Further compounds by rising pEC50 (S1P1 [1]), results first:

pEC50 (S1P1 [1])	pEC50 (S1P3)	pKi (S1P1 [2])	SMILES
5.44	–	5.97	COc1ccccc1-c1noc(-c2ccc(N3CCCCC3)cc2)n1 [Compound I4, 1-{4-[3-(2-methoxyphenyl)-1,2,4-oxadiazol-5-yl]phenyl}piperidine]
7.23	–	7.60	FC(F)(F)Oc1ccccc1-c1noc(-c2ccc(C3CCCCC3)cc2)n1 [Compound I29, 5-(4-cyclohexylphenyl)-3-[2-(trifluoromethoxy)phenyl]-1,2,4-oxadiazole]
7.44	< 4.52	–	COc1ccccc1-c1noc(-c2ccc(N3CCCC(F)(F)C3)c([N+](=O)[O-])c2)n1 [Compound I12, 3,3-difluoro-1-{4-[3-(2-methoxyphenyl)-1,2,4-oxadiazol-5-yl]-2-nitrophenyl}piperidine]
7.62	6.57	–	COc1ccc(F)cc1-c1noc(-c2ccc(N3CCCCC3C)c(N)c2)n1 (centres unmarked) [Compound I69, 5-[3-(5-fluoro-2-methoxyphenyl)-1,2,4-oxadiazol-5-yl]-2-(2-methylpiperidin-1-yl)aniline]
7.74	< 4.52	–	CC1CCCCN1c1ccc(-c2nc(-c3ccccc3OC(F)(F)F)no2)cc1[N+](=O)[O-] (centres unmarked) [Compound I8, 2-methyl-1-(2-nitro-4-{3-[2-(trifluoromethoxy)phenyl]-1,2,4-oxadiazol-5-yl}phenyl)piperidine]
8.00	< 4.70	–	COc1ccccc1-c1ccc(-c2nc(-c3ccccc3OC(F)(F)F)no2)cc1C [Compound I45, 5-(2′-methoxy-2-methylbiphenyl-4-yl)-3-[2-(trifluoromethoxy)phenyl]-1,2,4-oxadiazole]
8.22	–	7.37	COc1ccc(F)cc1-c1noc(-c2ccc(-c3ccccc3C)c(C)c2)n1 [Compound I33, 5-(2,2′-dimethylbiphenyl-4-yl)-3-(5-fluoro-2-methoxyphenyl)-1,2,4-oxadiazole]
8.40	–	8.10	COc1ccccc1-c1noc(-c2ccc(-c3ccccc3C)c(C(F)(F)F)c2)n1 [Compound I62, 3-(2-methoxyphenyl)-5-[2′-methyl-2-(trifluoromethyl)biphenyl-4-yl]-1,2,4-oxadiazole]
9.00	7.13	8.40	COc1ccc(F)cc1-c1noc(-c2ccc(N3CCCCC3C)c(C#N)c2)n1 (centres unmarked) [Compound I71, 5-[3-(5-fluoro-2-methoxyphenyl)-1,2,4-oxadiazol-5-yl]-2-(2-methylpiperidin-1-yl)benzonitrile]
